According to publication PMC9814548, “Chemoenzymatic synthesis of 3-ethyl-2,5-dimethylpyrazine by L-threonine 3-dehydrogenase and 2-amino-3-ketobutyrate CoA ligase/L-threonine aldolase” (Communications Chemistry, 2021):

Target: T1, CnKBL (Cupriavidus necator, UniProt Q0K313, H138F)
T1 construct: gene kbl; gene cloned in pET-28a (NcoI/XhoI), E. coli BL21(DE3), Ni-Sepharose and gel filtration; dimer; PLP on K246
Test: threonine aldolase activity, coupled alcohol dehydrogenase assay
Assay type: biochemical
Conditions: TA activity not detectable

T1 sequence (Q0K313 entry or part of it H138F): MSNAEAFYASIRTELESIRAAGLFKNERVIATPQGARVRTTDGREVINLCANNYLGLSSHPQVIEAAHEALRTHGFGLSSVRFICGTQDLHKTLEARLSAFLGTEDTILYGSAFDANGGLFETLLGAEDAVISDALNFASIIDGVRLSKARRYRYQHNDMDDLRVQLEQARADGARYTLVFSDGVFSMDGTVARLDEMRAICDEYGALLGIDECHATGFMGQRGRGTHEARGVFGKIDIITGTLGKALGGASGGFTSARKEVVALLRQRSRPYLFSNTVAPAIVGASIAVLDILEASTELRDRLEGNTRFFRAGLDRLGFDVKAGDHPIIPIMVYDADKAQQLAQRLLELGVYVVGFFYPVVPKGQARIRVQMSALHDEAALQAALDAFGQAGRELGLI

C[C@@H](O)[C@H](N)C(=O)O [L-Thr]
threonine aldolase activity, coupled alcohol dehydrogenase assay: TA activity of the H138F variant decreased to an undetectable level compared with CnKBL(WT)
